Measured values reported in patent US11622556B2, “Re-oiled and hyper-oiled lecithin carrier vehicles” (BIO-UP MIMETIC TECHNOLOGIES, INC., priority 2016, dated 2023).

Tests used:
mosquito larvae = type: in vivo; settings: liposomal essential oils in pond water
Sinorhizobium meliloti = experiment: Microbial growth in 96-well plate, change in absorbance at 630 nm; type: cell-based; settings: for overall potency order of essential oils: essential oils in de-oiled lecithin liposomes with triglyceride

Row | SMILES | larvicidal activity order (mosquito larvae) | overall potency order of essential oils (Sinorhizobium meliloti) | activity as a single agent (Sinorhizobium meliloti; liposomes with 0, 20 or 45 wt % triglyceride, particularly notable at 45%) | antimicrobial activity of marker label (Sinorhizobium meliloti; in liposome membrane)
1 | C=CCc1ccc(O)c(OC)c1 [eugenol] | thymol>cinnamaldehyde˜d-limonene>citronella˜eugenol>sandalwood oil˜coriander oil˜lavender oil |  |  | 
2 | O=CC=Cc1ccccc1 [cinnamaldehyde] | thymol>cinnamaldehyde˜d-limonene>citronella˜eugenol>sandalwood oil˜coriander oil˜lavender oil | vetiver≈cinnamaldehyde>citronella≈sandalwood≈bayleaf≈patchouli≈rosewood>linalool≈d-limonene | greater activity than citronella | 
3 | Cc1ccc(C(C)C)c(O)c1 [thymol] | thymol>cinnamaldehyde˜d-limonene>citronella˜eugenol>sandalwood oil˜coriander oil˜lavender oil |  |  | 
4 | C=C(C)[C@H]1CC=C(C)CC1 [d-limonene] | thymol>cinnamaldehyde˜d-limonene>citronella˜eugenol>sandalwood oil˜coriander oil˜lavender oil | vetiver≈cinnamaldehyde>citronella≈sandalwood≈bayleaf≈patchouli≈rosewood>linalool≈d-limonene |  | 
5 | COc1cc(/C=C/C(=O)CC(=O)/C=C/c2ccc(O)c(OC)c2)ccc1O [diferuloylmethane, reference compound] |  |  |  | no antimicrobial activity
